Columns and labels:
Assay in all cases: relative viability (nuclei count vs DMSO), 5 days (fraction); higher = more cells survive
[1] = compound: CO[C@H]1C[C@@H]2CC[C@@H](C)[C@@](O)(O2)C(=O)C(=O)N2CCCC[C@H]2C(=O)O[C@H]([C@H](C)C[C@@H]2CC[C@@H](OCCO)[C@H](OC)C2)CC(=O)[C@H](C)/C=C(\C)[C@@H](O)[C@@H](OC)C(=O)[C@H](C)C[C@H](C)/C=C/C=C/C=C/1C [Everolimus] + CC1(C)CCC(c2ccc(Cl)cc2)=C(CN2CCN(c3ccc(C(=O)NS(=O)(=O)c4ccc(N[C@H](CCN5CCOCC5)CSc5ccccc5)c(S(=O)(=O)C(F)(F)F)c4)cc3)CC2)C1 [Navitoclax] (partner 0.5 µM)
Summary of the method: (§1)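 One day after seeding in 1536-well plates, lung cancer cell lines were dosed by pin tool. Dosing was either single-drug or a fixed anchor-drug dose plus five library-drug doses (not always all listed) in √10 steps. After 5 days, nuclei were stained in one fix-and-stain step and counted on 4× images, and relative viability is the nuclei count of treated wells over that of vehicle wells, given as the median of duplicate plates.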

[2] = compound: CO[C@H]1C[C@@H]2CC[C@@H](C)[C@@](O)(O2)C(=O)C(=O)N2CCCC[C@H]2C(=O)O[C@H]([C@H](C)C[C@@H]2CC[C@@H](OCCO)[C@H](OC)C2)CC(=O)[C@H](C)/C=C(\C)[C@@H](O)[C@@H](OC)C(=O)[C@H](C)C[C@H](C)/C=C/C=C/C=C/1C [Everolimus] + CCNC(=O)c1noc(-c2cc(C(C)C)c(O)cc2O)c1-c1ccc(CN2CCOCC2)cc1 [Luminespib] (partner 0.01 µM)
Summary of the method: as §1

[3] = compound: CO[C@H]1C[C@@H]2CC[C@@H](C)[C@@](O)(O2)C(=O)C(=O)N2CCCC[C@H]2C(=O)O[C@H]([C@H](C)C[C@@H]2CC[C@@H](OCCO)[C@H](OC)C2)CC(=O)[C@H](C)/C=C(\C)[C@@H](O)[C@@H](OC)C(=O)[C@H](C)C[C@H](C)/C=C/C=C/C=C/1C [Everolimus] + COc1cc2c(Oc3ccc(NC(=O)C4(C(=O)Nc5ccc(F)cc5)CC4)cc3F)ccnc2cc1OCCCN1CCOCC1 [Foretinib] (partner 0.25 µM)
Summary of the method: as §1

[4] = compound: CO[C@H]1C[C@@H]2CC[C@@H](C)[C@@](O)(O2)C(=O)C(=O)N2CCCC[C@H]2C(=O)O[C@H]([C@H](C)C[C@@H]2CC[C@@H](OCCO)[C@H](OC)C2)CC(=O)[C@H](C)/C=C(\C)[C@@H](O)[C@@H](OC)C(=O)[C@H](C)C[C@H](C)/C=C/C=C/C=C/1C [Everolimus] + C[C@]1(O)C[C@@H](c2nc(-c3ccc4ccc(-c5ccccc5)nc4c3)c3c(N)nccn32)C1 [Linsitinib] (partner 1 µM)
Summary of the method: as §1

Cell Line | relative viability ([1]; first compound 0.01 µM) | relative viability ([1]; first compound 0.03162 µM) | relative viability ([1]; first compound 0.1 µM) | relative viability ([1]; first compound 0.3162 µM) | relative viability ([1]; first compound 1 µM) | relative viability ([2]; first compound 0.01 µM) | relative viability ([2]; first compound 0.03162 µM) | relative viability ([2]; first compound 0.1 µM) | relative viability ([2]; first compound 0.3162 µM) | relative viability ([2]; first compound 1 µM) | relative viability ([3]; first compound 0.01 µM) | relative viability ([3]; first compound 0.03162 µM) | relative viability ([3]; first compound 0.1 µM) | relative viability ([3]; first compound 0.3162 µM) | relative viability ([3]; first compound 1 µM) | relative viability ([4]; first compound 0.01 µM) | relative viability ([4]; first compound 0.03162 µM) | relative viability ([4]; first compound 0.1 µM) | relative viability ([4]; first compound 0.3162 µM) | relative viability ([4]; first compound 1 µM)
LXF-289 | 0.99 | 1.04 | 0.958 | 0.96 | 0.957 | 0.59 | 0.512 | 0.582 | 0.641 | 0.66 | 1.03 | 1 | 0.936 | 0.99 | 1 | 0.984 | 0.972 | 0.913 | 1.02 | 0.917
NCI-H23 | 0.556 | 0.424 | 0.44 | 0.544 | 0.557 | 0.211 | 0.2 | 0.21 | 0.232 | 0.218 | 0.751 | 0.654 | 0.527 | 0.529 | 0.517 | 0.288 | 0.3 | 0.244 | 0.251 | 0.271
NCI-H322M | 1.21 | 1.05 | 0.905 | 0.902 | 0.79 | 0.579 | 0.568 | 0.387 | 0.554 | 0.543 | 0.695 | 0.655 | 0.666 | 0.78 | 0.73 | 0.87 | 0.695 | 0.683 | 0.739 | 0.645
NCI-H441 | 0.658 | 0.577 | 0.79 | 0.73 | 0.482 | 0.272 | 0.267 | 0.223 | 0.271 | 0.234 | 0.972 | 0.863 | 0.726 | 0.833 | 0.659 | 0.504 | 0.302 | 0.289 | 0.402 | 0.401
NCI-H460 | 0.998 | 1.11 | 0.704 | 1.1 | 0.779 | 0.0198 | 0.0198 | 0.0232 | 0.0224 | 0.0194 | 1.01 | 1.01 | 0.969 | 0.942 | 1.11 | 0.42 | 0.45 | 0.365 | 0.301 | 0.381
NCI-H520 | 0.537 | 0.454 | 0.421 | 0.535 | 0.445 | 0.23 | 0.237 | 0.215 | 0.235 | 0.206 | 0.478 | 0.335 | 0.321 | 0.434 | 0.349 | 0.533 | 0.441 | 0.532 | 0.343 | 0.372
NCI-H596 | 0.427 | 0.361 | 0.394 | 0.374 | 0.369 | 0.636 | 0.5 | 0.379 | 0.533 | 0.519 | 0.435 | 0.494 | 0.512 | 0.442 | 0.477 | 0.653 | 0.651 | 0.53 | 0.532 | 0.515
